Legend:
Format in all cases: cell-based
[1] = biological target: T1, RAMP3-CLR (AM2 receptor) (Homo sapiens, UniProt O60896+Q16602); assay: S. cerevisiae growth assay, GPA1/Gαs chimera, RAMP3 + CLR; details: percentage of yeast strain MMY11 (lacking GPA1); 20 h; mean ± S.E., n = 8
T1 construct: FLAG; expressed in transfected cells; host or cells: HEK-293 or HEK-293S cells, transient transfection, 1:1 RAMP:CLR
Description: (§1) FIGURE 1. […] Reporter gene activity was determined following 20 h of stimulation with each ligand. Data are expressed as a percentage of the maximum response observed in yeast strain MMY11 (lacking GPA1) and are means ± S.E. of n individual data sets. […] Data were determined as statistically different from the cognate ligand for each receptor (*, p < 0.05; **, p < 0.01; ***, p < 0.001) using a one-way ANOVA with Bonferroni's post-test.
(§2) General yeast procedures were performed as described previously ([22], [24]). The human CLR was introduced into yeast cells under the control of the PGK promoter using a plasmid containing ura3 (pDT-PGK). […] Receptor signaling was measured using the yeast growth assay as described previously ([24]). […] A fluorescein signal was detected as an increase in fluorescence (excitation wavelength = 485 nm, emission wavelength = 535 nm) as a measure of growth. Different concentrations of ligand (0.01 nM–100 μM) were assayed using 96-well plates, and fluorescence was detected using a Tecan Infinite M200 microplate reader (Tecan Ultra Evolution, Reading, UK) or a Mithras LB 940 microplate reader (Berthold Technologies, Harpenden, UK) for 20 h.
(§3) Data analysis for cAMP assays was performed in GraphPad Prism 6.0f (San Diego, CA). […] To quantitate the ligand-dependent response in the yeast system, a strain lacking GPA1 (MMY11), grown in rich medium, was used as a standard ([72]). […]

[2] = biological target: T2, RAMP1-CLR (CGRP receptor) (Homo sapiens, UniProt O60894+Q16602); assay: S. cerevisiae growth assay, GPA1/Gαs chimera, RAMP1 + CLR; details: percentage of yeast strain MMY11 (lacking GPA1); 20 h; mean ± S.E., n = 6
T2 construct: FLAG; expressed in transfected cells; host or cells: HEK-293 or HEK-293S cells, transient transfection, 1:1 RAMP:CLR
Description: as §1, §2, §3

[3] = biological target: T2, RAMP1-CLR (CGRP receptor); assay: (Ca^2+)i mobilization, HEK-293 cells, RAMP1 + CLR; details: HEK293, percentage of maximal (Ca^2+)i release with 10 μM ionomycin, mean ± S.E., n = 5
Description: HEK-293 cells were transfected with FuGENE 6 (Roche Applied Science) in accordance with the manufacturer's instructions using a 1:3 (w:v) DNA:FuGENE ratio and a 1:1 ratio of RAMP to CLR. […] The transfected cell lines were grown for 24–48 h prior to assaying.
Transfected HEK-293 cells were grown to confluence in black, clear bottomed, 96-well plates. […] Cells were then washed followed by the addition of 100 μl of Ca^2+-free Hanks' balanced salt solution. […] Recordings were obtained every 0.5 s for 120 s. Peak magnitude was calculated using five-point smoothing followed by correction against background fluorescence. The peak was used to generate concentration-response curves and normalized relative to 10 μM ionomycin.
Data analysis for cAMP assays was performed in GraphPad Prism 6.0f (San Diego, CA). […] These values were then used to quantify signaling bias as change in log (τ/Ka) relative to the natural cognate ligand for the respective receptor ([41]). […] Statistical differences were analyzed using one-way ANOVA or Student's t test as appropriate with post hoc Bonferroni's or Dunnett's multiple comparisons, and p < 0.05 was considered significant. […] To quantitate the ligand-dependent response in the yeast system, a strain lacking GPA1 (MMY11), grown in rich medium, was used as a standard ([72]). […]

T2 sequence (Q16602 23-461): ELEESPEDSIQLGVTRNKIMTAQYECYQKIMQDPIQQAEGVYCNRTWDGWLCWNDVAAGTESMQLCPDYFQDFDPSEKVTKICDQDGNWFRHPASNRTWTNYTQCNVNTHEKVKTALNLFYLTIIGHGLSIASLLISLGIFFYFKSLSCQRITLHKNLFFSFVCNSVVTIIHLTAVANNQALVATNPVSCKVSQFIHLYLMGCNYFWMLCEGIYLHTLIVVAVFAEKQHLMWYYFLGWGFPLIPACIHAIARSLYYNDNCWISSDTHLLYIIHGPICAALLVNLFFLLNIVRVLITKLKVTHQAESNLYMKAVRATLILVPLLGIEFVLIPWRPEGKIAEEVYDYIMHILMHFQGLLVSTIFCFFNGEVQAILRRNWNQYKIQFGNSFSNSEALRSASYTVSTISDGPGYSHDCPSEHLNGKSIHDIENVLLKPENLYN
T2 sequence (O60894 27-148): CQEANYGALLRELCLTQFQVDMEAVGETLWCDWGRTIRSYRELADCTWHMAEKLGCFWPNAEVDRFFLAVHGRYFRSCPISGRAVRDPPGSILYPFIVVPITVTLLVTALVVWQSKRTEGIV
T1 sequence (Q16602 23-461): as the sequence (Q16602 23-461) above
T1 sequence (O60896 24-148): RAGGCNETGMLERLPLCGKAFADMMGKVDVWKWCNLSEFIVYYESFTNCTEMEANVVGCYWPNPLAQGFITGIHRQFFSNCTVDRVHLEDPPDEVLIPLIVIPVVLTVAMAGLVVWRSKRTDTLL

For `CC[C@H](C)[C@H](NC(=O)[C@H](CCC(N)=O)NC(=O)[C@H](Cc1c[nH]cn1)NC(=O)[C@H](C)NC(=O)[C@H](CC(C)C)NC(=O)[C@H](CCCCN)NC(=O)[C@H](CCC(N)=O)NC(=O)[C@@H](NC(=O)[C@@H](NC(=O)[C@@H]1CSSC[C@H](NC(=O)CNC(=O)[C@H](Cc2ccccc2)NC(=O)[C@H](CO)NC(=O)[C@H](CCCNC(=N)N)NC(=O)[C@H](CC(C)C)NC(=O)CNC(=O)[C@H](CCC(N)=O)NC(=O)[C@H](Cc2ccccc2)NC(=O)[C@H](CC(N)=O)NC(=O)[C@H](CC(N)=O)NC(=O)[C@H](CCSC)NC(=O)[C@H](CO)NC(=O)[C@H](CCC(N)=O)NC(=O)[C@H](CCCNC(=N)N)NC(=O)[C@@H](N)Cc2ccc(O)cc2)C(=O)N[C@@H](CCCNC(=N)N)C(=O)N[C@@H](Cc2ccccc2)C(=O)NCC(=O)N[C@@H]([C@@H](C)O)C(=O)N1)[C@@H](C)O)C(C)C)C(=O)N[C@@H](Cc1ccc(O)cc1)C(=O)N[C@@H](CCC(N)=O)C(=O)N[C@@H](Cc1ccccc1)C(=O)N[C@H](C(=O)N[C@@H](CC(=O)O)C(=O)N[C@@H](CCCCN)C(=O)N[C@@H](CC(=O)O)C(=O)N[C@@H](CCCCN)C(=O)N[C@@H](CC(=O)O)C(=O)N[C@@H](CC(N)=O)C(=O)N[C@H](C(=O)N[C@@H](C)C(=O)N1CCC[C@H]1C(=O)N[C@@H](CCCNC(=N)N)C(=O)N[C@@H](CO)C(=O)N[C@@H](CCCCN)C(=O)N[C@H](C(=O)N[C@@H](CO)C(=O)N1CCC[C@H]1C(=O)N[C@@H](CCC(N)=O)C(=O)NCC(=O)N[C@@H](Cc1ccc(O)cc1)C(N)=O)[C@@H](C)CC)C(C)C)[C@@H](C)O` [AM, adrenomedullin], the Emax [1] was 25.5 ± 3.6%, the Emax [2] was 20.4 ± 2.8% and the Emax [3] was 37 ± 3.5%.

— publication PMC5063977 (The Journal of Biological Chemistry, 2016)
